In patent US20120258922A1, “S[…] LOW-DENSITY L[…]” (Seminis Vegetable Seeds, Inc., priority 2011, published 2012):
Read-outs that look alike come from different tables or passages of the source.

What was measured:
quinone reductase = details: for QUINONE REDUCTASE ACTIVITY, Expt. 1 / QUINONE REDUCTASE ACTIVITY, Expt. 2 / QUINONE REDUCTASE ACTIVITY, Expt. 3 / QUINONE REDUCTASE ACTIVITY, Average: HMDM + LDL; for QUINONE REDUCTASE ACTIVITY, Average: average of Expt. 1-3; for quinone reductase activity (in words): each agent individually, LDL-treated HMDM (Table 1, FIGS. 10A,B)
Excerpt: Blood was drawn and collected from healthy human volunteers, and LDL was isolated by density gradient centrifugation following methods known to one of ordinary skill in the art (e.g., Napolitano et al., Int J Biochem Cell Biol, 35:1127-43, 2002). Monocytes were also isolated from the blood and separated by Ficoll Hypaque centrifugation also according to known methods (e.g., Napolitano et al., Eur J Clin Invest, 35:482-90, 2005), followed by negative magnetic separation and maintained in culture with 20% autologous serum or F-10 medium for 5-7 days to differentiate into human monocyte-derived macrophages (HMDM). […] Following the pre-incubation step, LDL (100 μg/ml) was added and the cells were incubated for 24 hours. Supernatants were used for assessing oxidized LDL by ELISA (Mercodia) and/or TBARS (“Thiobarbituric Acid Reactive Substances”) as described previously (Devaraj et al., J Clin Invest 98:756, 1996). To assess the glutathione:glutathione disulfide (GSH:GSSG) ratio as an indicator of the redox poise of the cell, cells were dislodged by PBS-EDTA and were lysed (Pierce MPER) after a freeze-thaw cycle. After sonication and centrifugation, the cell pellet was stored at −80° C. until the relative levels of GSH and GSSG were assayed (Oxis Biochemicals). Quinone reductase activity was assayed following the method described previously (J. Fahey et al., Methods in Enzymology 382, 243-258, 2004).

[1] = tested on: human monocyte-derived macrophages (HMDM); assay: Macrophage-mediated LDL oxidation in HMDM (oxidized LDL by ELISA and/or TBARS); format: cell-based; details: for concentrations that significantly inhibit the oxidation of LDL: agent alone, 100 μg/ml LDL, p<0.01 compared to LDL control (FIG. 1, FIG. 2); for concentrations that significantly inhibit the oxidation of LDL / maximum inhibition of LDL oxidation: HMDM; for maximum inhibition of LDL oxidation: each agent individually, dose-dependent, compared to the LDL control, 100 μg/ml LDL (FIG. 1, FIG. 2); for IC50: α-tocopherol alone
Experimental: Raw broccoli extracts (“BE” or “B. Extract”) were prepared from four hybrids. […] 50 grams of extract were mixed with equal parts 50mM MES buffer pH 6.0 solution. Samples were blended for approximately 1 minute until homogeneous then maintained at room temperature for 10 min. Filtrates from samples were diluted 1:40 with 50 mM MES buffer for the assay. […] Assays with the broccoli extracts were performed as described above.

[2] = tested on: human monocyte-derived macrophages (HMDM); details: each agent individually, at lower doses; LDL-depleted HMDM (FIGS. 8, 9)
Excerpt: (§1) Blood was drawn and collected from healthy human volunteers, and LDL was isolated by density gradient centrifugation following methods known to one of ordinary skill in the art (e.g., Napolitano et al., Int J Biochem Cell Biol, 35:1127-43, 2002). Monocytes were also isolated from the blood and separated by Ficoll Hypaque centrifugation also according to known methods (e.g., Napolitano et al., Eur J Clin Invest, 35:482-90, 2005), followed by negative magnetic separation and maintained in culture with 20% autologous serum or F-10 medium for 5-7 days to differentiate into human monocyte-derived macrophages (HMDM). […] Following the pre-incubation step, LDL (100 μg/ml) was added and the cells were incubated for 24 hours. Supernatants were used for assessing oxidized LDL by ELISA (Mercodia) and/or TBARS (“Thiobarbituric Acid Reactive Substances”) as described previously (Devaraj et al., J Clin Invest 98:756, 1996). To assess the glutathione:glutathione disulfide (GSH:GSSG) ratio as an indicator of the redox poise of the cell, cells were dislodged by PBS-EDTA and were lysed (Pierce MPER) after a freeze-thaw cycle. After sonication and centrifugation, the cell pellet was stored at −80° C. until the relative levels of GSH and GSSG were assayed (Oxis Biochemicals). […]

NQO1 = assay: Inhibition of LDL oxidation in HMDM with SiNQO1 silencing; details: 100 μg/ml LDL (FIG. 12)
Excerpt: as §1

## C[S+]([O-])CCCCN=C=S (stereo not drawn) [sulforaphane]
Quinone reductase; 2 μM sulforaphane
  QUINONE REDUCTASE ACTIVITY, Expt. 1: 151.23 nmol/min/mg protein
  QUINONE REDUCTASE ACTIVITY, Expt. 2: 124.23 nmol/min/mg protein
  QUINONE REDUCTASE ACTIVITY, Expt. 3: 104.56 nmol/min/mg protein
  QUINONE REDUCTASE ACTIVITY, Average: 126.6733 nmol/min/mg protein
Quinone reductase
  quinone reductase activity (in words): restored enzymatic activity to normal levels
[1]; 2 μM sulforaphane individually applied (FIG. 11)
  effect on LDL oxidation: reduced LDL oxidation
[1]
  concentrations that significantly inhibit the oxidation of LDL: greater than 2 μM
  maximum inhibition of LDL oxidation: 58%
[2]
  GSH:GSSG ratio: restored the ratio to normal levels

## Cc1c(C)c2c(c(C)c1O)CC[C@@](C)(CCC[C@H](C)CCC[C@H](C)CCCC(C)C)O2 [α-tocopherol]
Quinone reductase; 6.25 μM α-tocopherol
  QUINONE REDUCTASE ACTIVITY, Expt. 1: 59.87 nmol/min/mg protein
  QUINONE REDUCTASE ACTIVITY, Expt. 2: 68.97 nmol/min/mg protein
  QUINONE REDUCTASE ACTIVITY, Expt. 3: 41.12 nmol/min/mg protein
  QUINONE REDUCTASE ACTIVITY, Average: 56.65 nmol/min/mg protein
Quinone reductase; 12.5 μM α-tocopherol
  QUINONE REDUCTASE ACTIVITY, Expt. 1: 66.45 nmol/min/mg protein
  QUINONE REDUCTASE ACTIVITY, Expt. 2: 69.47 nmol/min/mg protein
  QUINONE REDUCTASE ACTIVITY, Expt. 3: 42.25 nmol/min/mg protein
  QUINONE REDUCTASE ACTIVITY, Average: 59.39 nmol/min/mg protein
Quinone reductase; 25 μM α-tocopherol
  QUINONE REDUCTASE ACTIVITY, Expt. 1: 68.98 nmol/min/mg protein
  QUINONE REDUCTASE ACTIVITY, Expt. 2: 64.56 nmol/min/mg protein
  QUINONE REDUCTASE ACTIVITY, Expt. 3: 65.14 nmol/min/mg protein
  QUINONE REDUCTASE ACTIVITY, Average: 66.23 nmol/min/mg protein
Quinone reductase; 50 μM α-tocopherol
  QUINONE REDUCTASE ACTIVITY, Expt. 1: 77.14 nmol/min/mg protein
  QUINONE REDUCTASE ACTIVITY, Expt. 2: 74.19 nmol/min/mg protein
  QUINONE REDUCTASE ACTIVITY, Expt. 3: 66.23 nmol/min/mg protein
  QUINONE REDUCTASE ACTIVITY, Average: 72.52 nmol/min/mg protein
Quinone reductase
  quinone reductase activity (in words): only a modest effect
[1]; 25 μM α-tocopherol individually applied (FIG. 11)
  effect on LDL oxidation: reduced LDL oxidation
[1]
  concentrations that significantly inhibit the oxidation of LDL: greater than 12.5 μM
  maximum inhibition of LDL oxidation: 58%
[1]; FIG. 5 experiment
  IC50: 53.1 µM
[1]; FIG. 7 experiment
  IC50: 23.6 µM
[2]
  GSH:GSSG ratio: restored the ratio to normal levels
NQO1
  effectiveness at inhibiting LDL oxidation after NQO1 silencing: reduced but not complete reduction of the effectiveness
